According to the supplement of paper PMC10307832:

Tests used:
Assay in all cases: relative viability (nuclei count vs DMSO), 5 days (fraction); higher = more cells survive
NCI-H1944 = tested on: NCI-H1944
Procedure, shortened: (§1)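 Dosing by pin tool came one day after lung cancer cell lines were seeded in 1536-well plates, using either one drug or a fixed anchor-drug dose plus five library-drug doses (not always all listed) in √10 steps. After 5 days, nuclei were counted on 4× images. Relative viability is treated-well nuclei count divided by vehicle-well nuclei count, and values are medians of duplicate plates.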

NCI-H520 = tested on: NCI-H520
Procedure, shortened: as §1

PC-14 = tested on: PC-14
Procedure, shortened: as §1

NCI-H2228 = tested on: NCI-H2228
Procedure, shortened: as §1

NCI-H838 = tested on: NCI-H838
Procedure, shortened: as §1

CAL-12T = tested on: CAL-12T
Procedure, shortened: as §1

NCI-H1395 = tested on: NCI-H1395
Procedure, shortened: as §1

NCI-H647 = tested on: NCI-H647
Procedure, shortened: as §1

NCI-H1993 = tested on: NCI-H1993
Procedure, shortened: as §1

NCI-H661 = tested on: NCI-H661
Procedure, shortened: as §1

SK-LU-1 = tested on: SK-LU-1
Procedure, shortened: as §1

NCI-H1734 = tested on: NCI-H1734
Procedure, shortened: as §1

HCC-366 = tested on: HCC-366
Procedure, shortened: as §1

H3255 = tested on: H3255
Procedure, shortened: as §1

NCI-H1975 = tested on: NCI-H1975
Procedure, shortened: as §1

LU99A = tested on: LU99A
Procedure, shortened: as §1

PC-3 [JPC-3] = tested on: PC-3 [JPC-3]
Procedure, shortened: as §1

NCI-H1666 = tested on: NCI-H1666
Procedure, shortened: as §1

HARA = tested on: HARA
Procedure, shortened: as §1

HCC-15 = tested on: HCC-15
Procedure, shortened: as §1

COR-L 105 = tested on: COR-L 105
Procedure, shortened: as §1

NCI-H3122 = tested on: NCI-H3122
Procedure, shortened: as §1

LC-2-ad = tested on: LC-2-ad
Procedure, shortened: as §1

Structure (SMILES): O=C(O)CCCCC(CCSCc1ccccc1)SCc1ccccc1 (stereo not drawn) [CPI-613] + Cc1cc(Nc2cc(N3CCN(C)CC3)nc(Sc3ccc(NC(=O)C4CC4)cc3)n2)n[nH]1 [Tozasertib] (partner 0.1 µM)
- relative viability (NCI-H1944; first compound 5 µM): 0.264
- relative viability (NCI-H1944; first compound 15.81 µM): 0.233
- relative viability (NCI-H1944; first compound 50 µM): 0.268
- relative viability (NCI-H1944; first compound 158.11 µM): 0.195
- relative viability (NCI-H1944; first compound 500 µM): 0.127
- relative viability (NCI-H520; first compound 5 µM): 0.42
- relative viability (NCI-H520; first compound 15.81 µM): 0.378
- relative viability (NCI-H520; first compound 50 µM): 0.352
- relative viability (NCI-H520; first compound 158.11 µM): 0.48
- relative viability (NCI-H520; first compound 500 µM): 0.375
- relative viability (PC-14; first compound 5 µM): 0.556
- relative viability (PC-14; first compound 15.81 µM): 0.531
- relative viability (PC-14; first compound 50 µM): 0.553
- relative viability (PC-14; first compound 158.11 µM): 0.502
- relative viability (PC-14; first compound 500 µM): 0.536
- relative viability (NCI-H2228; first compound 5 µM): 0.304
- relative viability (NCI-H2228; first compound 15.81 µM): 0.204
- relative viability (NCI-H2228; first compound 50 µM): 0.236
- relative viability (NCI-H2228; first compound 158.11 µM): 0.146
- relative viability (NCI-H2228; first compound 500 µM): 0.112
- relative viability (NCI-H838; first compound 5 µM): 0.271
- relative viability (NCI-H838; first compound 15.81 µM): 0.252
- relative viability (NCI-H838; first compound 50 µM): 0.249
- relative viability (NCI-H838; first compound 158.11 µM): 0.194
- relative viability (NCI-H838; first compound 500 µM): 0.104
- relative viability (CAL-12T; first compound 5 µM): 0.284
- relative viability (CAL-12T; first compound 15.81 µM): 0.253
- relative viability (CAL-12T; first compound 50 µM): 0.256
- relative viability (CAL-12T; first compound 158.11 µM): 0.0605
- relative viability (CAL-12T; first compound 500 µM): 0.0057
- relative viability (NCI-H1395; first compound 5 µM): 0.691
- relative viability (NCI-H1395; first compound 15.81 µM): 0.632
- relative viability (NCI-H1395; first compound 50 µM): 0.653
- relative viability (NCI-H1395; first compound 158.11 µM): 0.752
- relative viability (NCI-H1395; first compound 500 µM): 0.612
- relative viability (NCI-H647; first compound 5 µM): 0.384
- relative viability (NCI-H647; first compound 15.81 µM): 0.244
- relative viability (NCI-H647; first compound 50 µM): 0.286
- relative viability (NCI-H647; first compound 158.11 µM): 0.0859
- relative viability (NCI-H647; first compound 500 µM): 0.021
- relative viability (NCI-H1993; first compound 5 µM): 0.631
- relative viability (NCI-H1993; first compound 15.81 µM): 0.669
- relative viability (NCI-H1993; first compound 50 µM): 0.559
- relative viability (NCI-H1993; first compound 158.11 µM): 0.507
- relative viability (NCI-H1993; first compound 500 µM): 0.426
- relative viability (NCI-H661; first compound 5 µM): 0.358
- relative viability (NCI-H661; first compound 15.81 µM): 0.324
- relative viability (NCI-H661; first compound 50 µM): 0.348
- relative viability (NCI-H661; first compound 158.11 µM): 0.331
- relative viability (NCI-H661; first compound 500 µM): 0.203
- relative viability (SK-LU-1; first compound 5 µM): 0.321
- relative viability (SK-LU-1; first compound 15.81 µM): 0.244
- relative viability (SK-LU-1; first compound 50 µM): 0.299
- relative viability (SK-LU-1; first compound 158.11 µM): 0.25
- relative viability (SK-LU-1; first compound 500 µM): 0.195
- relative viability (NCI-H1734; first compound 5 µM): 0.235
- relative viability (NCI-H1734; first compound 15.81 µM): 0.24
- relative viability (NCI-H1734; first compound 50 µM): 0.291
- relative viability (NCI-H1734; first compound 158.11 µM): 0.152
- relative viability (NCI-H1734; first compound 500 µM): 0.118
- relative viability (HCC-366; first compound 5 µM): 0.0925
- relative viability (HCC-366; first compound 15.81 µM): 0.33
- relative viability (HCC-366; first compound 50 µM): 0.156
- relative viability (HCC-366; first compound 158.11 µM): 0.0259
- relative viability (HCC-366; first compound 500 µM): 0.0032
- relative viability (H3255; first compound 5 µM): 0.529
- relative viability (H3255; first compound 15.81 µM): 0.615
- relative viability (H3255; first compound 50 µM): 0.579
- relative viability (H3255; first compound 500 µM): 0.753
- relative viability (NCI-H1975; first compound 5 µM): 0.7
- relative viability (NCI-H1975; first compound 15.81 µM): 0.639
- relative viability (NCI-H1975; first compound 50 µM): 0.676
- relative viability (NCI-H1975; first compound 158.11 µM): 0.324
- relative viability (NCI-H1975; first compound 500 µM): 0.233
- relative viability (LU99A; first compound 5 µM): 0.299
- relative viability (LU99A; first compound 15.81 µM): 0.298
- relative viability (LU99A; first compound 50 µM): 0.293
- relative viability (LU99A; first compound 158.11 µM): 0.343
- relative viability (LU99A; first compound 500 µM): 0.34
- relative viability (PC-3 [JPC-3]; first compound 5 µM): 0.81
- relative viability (PC-3 [JPC-3]; first compound 15.81 µM): 0.808
- relative viability (PC-3 [JPC-3]; first compound 50 µM): 0.762
- relative viability (PC-3 [JPC-3]; first compound 158.11 µM): 0.499
- relative viability (PC-3 [JPC-3]; first compound 500 µM): 0.498
- relative viability (NCI-H1666; first compound 5 µM): 0.558
- relative viability (NCI-H1666; first compound 15.81 µM): 0.634
- relative viability (NCI-H1666; first compound 50 µM): 0.614
- relative viability (NCI-H1666; first compound 158.11 µM): 0.233
- relative viability (NCI-H1666; first compound 500 µM): 0.155
- relative viability (HARA; first compound 15.81 µM): 0.117
- relative viability (HARA; first compound 50 µM): 0.0973
- relative viability (HARA; first compound 158.11 µM): 0.0946
- relative viability (HARA; first compound 500 µM): 0.0096
- relative viability (HCC-15; first compound 5 µM): 0.514
- relative viability (HCC-15; first compound 15.81 µM): 0.367
- relative viability (HCC-15; first compound 50 µM): 0.369
- relative viability (HCC-15; first compound 158.11 µM): 0.29
- relative viability (HCC-15; first compound 500 µM): 0.112
- relative viability (COR-L 105; first compound 5 µM): 0.288
- relative viability (COR-L 105; first compound 15.81 µM): 0.348
- relative viability (COR-L 105; first compound 50 µM): 0.321
- relative viability (COR-L 105; first compound 158.11 µM): 0.321
- relative viability (COR-L 105; first compound 500 µM): 0.137
- relative viability (NCI-H3122; first compound 5 µM): 0.357
- relative viability (NCI-H3122; first compound 15.81 µM): 0.363
- relative viability (NCI-H3122; first compound 50 µM): 0.348
- relative viability (NCI-H3122; first compound 158.11 µM): 0.211
- relative viability (NCI-H3122; first compound 500 µM): 0.0108
- relative viability (LC-2-ad; first compound 5 µM): 0.45
- relative viability (LC-2-ad; first compound 15.81 µM): 0.398
- relative viability (LC-2-ad; first compound 50 µM): 0.459
- relative viability (LC-2-ad; first compound 158.11 µM): 0.267
- relative viability (LC-2-ad; first compound 500 µM): 0.0577
